# Laboratory results reported in US11957684B2, “Treatment of heavy menstrual bleeding associated with uterine fibroids” (Sumitomo Pharma Switzerland GmbH, priority 2016, dated 2024).
# Legend:
# endometriosis = assay: Example 7 12-week study in endometriosis: efficacy (VAS, B&B, EHP-30); assay type: in vivo, human; settings: for Physician B&B, dysmenorrhea / Physician B&B, dyspareunia / Physician B&B, non-menstrual pelvic pain / change from baseline in EHP-30, Control and powerlessness / change from baseline in EHP-30, Self-image / change from baseline in EHP-30, emotional well-being / change from baseline in EHP-30, pain / change from baseline in EHP-30, social support: Week 12; for Modified (patient) B&B, deep dyspareunia / Modified (patient) B&B, dysmenorrhea / Modified (patient) B&B, non-menstrual pelvic pain / change from baseline in proportion of days with usage of analgesics: end of treatment
# Method: Secondary endpoints included VAS score for pelvic pain, dysmenorrhea, and dyspareunia during the treatment period. […] Subjects recorded in the patient diary every day until the end of treatment. […] Designated examinations and evaluations were performed at each visit. As used in the examples, the VAS score was evaluated using a 100 mm scale. For pain intensity, the scale was anchored by “no pain” (score of 0) and “pain as bad as you can imagine” (score of 100). […] The above items were evaluated using a patient diary that was distributed by the sponsor. Subjects filled out the patient diary every day during the treatment period or until early termination. If taking prohibited analgesics, subjects recorded this fact in the patient diary along with the accompanying pain symptoms before use of analgesics. As used in the examples, pain during menstruation and pelvic pain unrelated to menstruation were evaluated using scores on the M-B&B and B&B. The M-B&B scores were recorded by subjects on the patient diary supplied by the sponsor. Subjects filled out the patient diary every day during the treatment period or until early termination. If taking prohibited analgesics, subjects recorded this fact in the patient diary along with the accompanying pain symptoms before use of analgesics. The investigator or subinvestigator assessed each patient's pain through interviews and filled out a B&B once a month. The items that were assessed are shown below. The M-B&B score included: dysmenorrhea (severe, moderate, mild, no pain, or no menstruation); pelvic pain (severe, moderate, mild, or no pain); deep dyspareunia (severe, moderate, mild, no pain, or no intercourse). The B&B score included: dysmenorrhea (severe, moderate, mild, none, or not applicable); dyspareunia (severe, moderate, mild, none, or not applicable); pelvic pain (severe, moderate, mild, or none); pelvic tenderness (severe, moderate, mild, or none); and induration (severe, moderate, mild, or none). As used in the examples, the EHP-30 score was obtained by subjects assessing and recording their own QOL using the EHP-30 questionnaire.
# women with endometriosis = assay: Example 7: bone mineral density and serum hormones; assay type: in vivo, human; settings: for percent change of bone mineral density from baseline: 12 wk
# Text: Subjects were diagnosed with endometriosis within the 5 years before screening and had dysmenorrhea and pelvic pain, of which either 1 or both was at least “moderate” as determined by the investigator using the Biberoglu & Behrman (B&B) scale. […] Secondary endpoints included VAS score for pelvic pain, dysmenorrhea, and dyspareunia during the treatment period.
# [1] = system: LH, FSH, estradiol (E2), progesterone (P), CA125; assay: Example 8A: serum LH, FSH, E2, P and CA125; assay type: in vivo, human; settings: for median change in serum E2 from baseline / median change in serum FSH from baseline / median change in serum LH from baseline / median change in serum progesterone (P) from baseline / subjects with CA125 less than or equal to 35 U/mL: Week 24
# Text: Study participants were premenopausal (≥20 years) Japanese women with endometriosis (EM)-associated pain who completed a preceding 12-week study and were eligible to continue for an additional 12-week treatment were enrolled. The participants has confirmed normal regular menstrual cycles (25 to 38 days per cycle) and diagnosed to have EM and EM-related dysmenorrhea and pelvic pain of at least moderate severity as determined by the physician B&B scale. The primary endpoint was the safety including assessment of change in bone mineral density (BMD) using dual energy x-ray absorptiometry, adverse events, vital signs, weight, 12-lead electrocardiograms, and clinical laboratory tests. […] Baseline characteristics were similar between randomized patients and all patients who entered the extension study.
# uterine fibroids = assay: Example 10 phase 3 study versus leuprorelin in uterine fibroids: efficacy; assay type: in vivo, human; settings: between Week 6 and Week 12
# Method: Subjects were aged 20 years or older inclusive, with uterine fibroids. […] The number of sites for this study was approximately 40.
# The leuprorelin subjects were administered 1.88 mg leuprorelin, 3.75 mg leuprorelin, or placebo subcutaneously once every 4 weeks. The duration of treatment for both groups was 24 weeks, and the follow-up period was 4 weeks.
# Assessment included answers to the uterine fibroid symptom and quality of life questionnaire provided in FIGS. 3A-3C; answers to the work productivity and activity impairment questionnaire: general health provided in FIGS. 66A-66B; clinical laboratory tests for hematology, chemistries, urinalysis, hormone, and biochemical bone metabolism markers.
# [2] = system: women with uterine fibroids; assay: Example 10: safety
# Text: Secondary endpoints for safety included: Adverse events (AEs), vital signs, weight, standard 12-lead electrocardiogram (ECG), clinical laboratory tests, BMD, biochemical bone metabolism markers (serum N-telopeptide [NTELOP] and bone specific alkaline phosphatase [BAP])
# [3] = Compound 1 40 mg, leuprolide acetate 3.75 mg/4 wk
structure (smiles),measurement,setting,value
"CONC(=O)Nc1ccc(-c2sc3c(c2CN(C)C)c(=O)n(-c2ccc(OC)nn2)c(=O)n3Cc2c(F)cccc2F)cc1 [Compound 1, N-(4-(1-(2,6-difluorobenzyl)-5-((dimethylamino)methyl)-3-(6-methoxy-3-pyridazinyl)-2,4-dioxo-1,2,3,4-tetrahydrothieno[2,3-d]pyrimidin-6-yl)phenyl)-N′-methoxyurea]","Physician B&B, dysmenorrhea",endometriosis; 10 mg,−1.0
same,"Physician B&B, dyspareunia",endometriosis; 10 mg,−0.2
same,"Physician B&B, non-menstrual pelvic pain",endometriosis; 10 mg,−0.6
same,"change from baseline in EHP-30, Control and powerlessness",endometriosis; 10 mg,−13.7
same,"change from baseline in EHP-30, Self-image",endometriosis; 10 mg,−5.5
same,"change from baseline in EHP-30, emotional well-being",endometriosis; 10 mg,−8.3
same,"change from baseline in EHP-30, pain",endometriosis; 10 mg,−18.3
same,"change from baseline in EHP-30, social support",endometriosis; 10 mg,−6.6
same,"change from baseline in mean VAS score, pelvic pain","endometriosis; 10 mg, end of 12-wk treatment period",−6.168±9.1411 mm
same,"Modified (patient) B&B, deep dyspareunia",endometriosis; 10 mg,−0.08
same,"Modified (patient) B&B, dysmenorrhea",endometriosis; 10 mg,−0.48
same,"Modified (patient) B&B, non-menstrual pelvic pain",endometriosis; 10 mg,−0.21
same,change from baseline in proportion of days with usage of analgesics,endometriosis; 10 mg,−6.6
same,"Physician B&B, dysmenorrhea",endometriosis; 20 mg,−1.5
same,"Physician B&B, dyspareunia",endometriosis; 20 mg,−0.2
same,"Physician B&B, non-menstrual pelvic pain",endometriosis; 20 mg,−0.8
same,"change from baseline in EHP-30, Control and powerlessness",endometriosis; 20 mg,−14.6
same,"change from baseline in EHP-30, Self-image",endometriosis; 20 mg,−6.3
same,"change from baseline in EHP-30, emotional well-being",endometriosis; 20 mg,−8.9
same,"change from baseline in EHP-30, pain",endometriosis; 20 mg,−17.8
same,"change from baseline in EHP-30, social support",endometriosis; 20 mg,−8.4
same,"change from baseline in mean VAS score, pelvic pain","endometriosis; 20 mg, end of 12-wk treatment period",−8.070±13.3707 mm
same,"Modified (patient) B&B, deep dyspareunia",endometriosis; 20 mg,−0.10
same,"Modified (patient) B&B, dysmenorrhea",endometriosis; 20 mg,−0.76
same,"Modified (patient) B&B, non-menstrual pelvic pain",endometriosis; 20 mg,−0.22
same,change from baseline in proportion of days with usage of analgesics,endometriosis; 20 mg,−6.3
same,"change from baseline in mean VAS score, pelvic pain","endometriosis; 40 mg, Day 1-28",−3.761 mm
same,"change from baseline in mean VAS score, pelvic pain","endometriosis; 40 mg, Day 29-56",−8.960±9.8226 mm
same,"change from baseline in mean VAS score, pelvic pain","endometriosis; 40 mg, Day 57-84",−10.464±11.0995 mm
same,"Physician B&B, dysmenorrhea",endometriosis; 40 mg,−2.0
same,"Physician B&B, dyspareunia",endometriosis; 40 mg,−0.1
same,"Physician B&B, non-menstrual pelvic pain",endometriosis; 40 mg,−0.9
same,"change from baseline in EHP-30, Control and powerlessness",endometriosis; 40 mg,−17.2
same,"change from baseline in EHP-30, Self-image",endometriosis; 40 mg,−8.4
same,"change from baseline in EHP-30, emotional well-being",endometriosis; 40 mg,−10.4
same,"change from baseline in EHP-30, pain",endometriosis; 40 mg,−25.3
same,"change from baseline in EHP-30, social support",endometriosis; 40 mg,−6.8
same,"change from baseline in mean VAS score, pelvic pain","endometriosis; 40 mg, end of 12-wk treatment period",−10.418±11.0171 mm
same,"Modified (patient) B&B, deep dyspareunia",endometriosis; 40 mg,−0.07
same,"Modified (patient) B&B, dysmenorrhea",endometriosis; 40 mg,−1.16
same,"Modified (patient) B&B, non-menstrual pelvic pain",endometriosis; 40 mg,−0.33
same,change from baseline in proportion of days with usage of analgesics,endometriosis; 40 mg,−10.1
same,percent change of bone mineral density from baseline,women with endometriosis; 10 mg,−0.95±1.875%
same,percent change of bone mineral density from baseline,women with endometriosis; 20 mg,−1.34±2.087%
same,percent change of bone mineral density from baseline,women with endometriosis; 40 mg,−2.08±2.220%
same,week from which median serum estradiol was below LLQ,women with endometriosis; [3],2 Week
same,median change in serum E2 from baseline,[1]; 10 mg,1.0 pg/mL
same,median change in serum FSH from baseline,[1]; 10 mg,−0.630 mIU/mL
same,median change in serum LH from baseline,[1]; 10 mg,0.300 mIU/mL
same,median change in serum progesterone (P) from baseline,[1]; 10 mg,0.000 ng/mL
same,subjects with CA125 less than or equal to 35 U/mL,[1]; 10 mg,75.3%
same,median change in serum E2 from baseline,[1]; 20 mg,-9.0 pg/mL
same,median change in serum FSH from baseline,[1]; 20 mg,−0.990 mIU/mL
same,median change in serum LH from baseline,[1]; 20 mg,−0.785 mIU/mL
same,median change in serum progesterone (P) from baseline,[1]; 20 mg,0.005 ng/mL
same,subjects with CA125 less than or equal to 35 U/mL,[1]; 20 mg,81.1%
same,median change in serum E2 from baseline,[1]; 40 mg,-39.0 pg/mL
same,median change in serum FSH from baseline,[1]; 40 mg,−3.550 mIU/mL
same,median change in serum LH from baseline,[1]; 40 mg,−2.480 mIU/mL
same,median change in serum progesterone (P) from baseline,[1]; 40 mg,-0.080 ng/mL
same,subjects with CA125 less than or equal to 35 U/mL,[1]; 40 mg,88.5%
same,week at which median serum E2 decreased to LLQ,[1]; [3],2 Week
same,proportion of subjects with a PBAC <10,uterine fibroids,82.2%
same,AE: Arthralgia,[2]; 24 wk,8(5.8) n(%)
same,AE: Bone density decreased,[2]; 24 wk,6(4.3) n(%)
same,AE: Bone resorption test abnormal,[2]; 24 wk,7(5.1) n(%)
same,AE: Dizziness,[2]; 24 wk,9(6.5) n(%)
same,AE: Gamma-glutamyl transferase increased,[2]; 24 wk,7(5.1) n(%)
same,AE: Genital haemorrhage,[2]; 24 wk,7(5.1) n(%)
same,AE: Headache,[2]; 24 wk,21(15.2) n(%)
same,AE: Hot flush,[2]; 24 wk,59(42.8) n(%)
same,AE: Hyperhidrosis,[2]; 24 wk,13(9.4) n(%)
same,AE: Malaise,[2]; 24 wk,8(5.8) n(%)
same,AE: Menorrhagia,[2]; 24 wk,34(24.6) n(%)
same,AE: Metrorrhagia,[2]; 24 wk,68(49.3) n(%)
same,AE: Resorption bone increased,[2]; 24 wk,7(5.1) n(%)
same,AE: Somnolence,[2]; 24 wk,7(5.1) n(%)
same,AE: Viral upper respiratory tract infection,[2]; 24 wk,39(28.3) n(%)
same,AEs Leading to Study Drug Discontinuation,[2]; 24 wk,9(6.5) n(%)
same,Deaths,[2]; 24 wk,0(0.0) n(%)
same,SAEs Leading to Study Drug Discontinuation,[2]; 24 wk,0(0.0) n(%)
same,Serious Treatment-Emergent AEs,[2]; 24 wk,0(0.0) n(%)
same,"Serious Treatment-Emergent AEs, Not Related",[2]; 24 wk,0(0.0) n(%)
same,"Serious Treatment-Emergent AEs, Related",[2]; 24 wk,0(0.0) n(%)
same,Treatment-Emergent AEs,[2]; 24 wk,131(94.9) n(%)
same,"Treatment-Emergent AEs, Not Related",[2]; 24 wk,11(8.0) n(%)
same,"Treatment-Emergent AEs, Related",[2]; 24 wk,120(87.0) n(%)
same,AE leading to discontinuation: Abdominal pain,[2]; in vivo,0(0.0) n(%)
same,AE leading to discontinuation: Arthralgia,[2]; in vivo,1(0.7) n(%)
same,AE leading to discontinuation: Back pain,[2]; in vivo,0(0.0) n(%)
same,AE leading to discontinuation: Blood pressure increased,[2]; in vivo,0(0.0) n(%)
same,AE leading to discontinuation: Depression,[2]; in vivo,1(0.7) n(%)
same,AE leading to discontinuation: Drug eruption,[2]; in vivo,0(0.0) n(%)
same,AE leading to discontinuation: Fatigue,[2]; in vivo,1(0.7) n(%)
same,AE leading to discontinuation: Headache,[2]; in vivo,1(0.7) n(%)
same,AE leading to discontinuation: Hot flush,[2]; in vivo,4(2.9) n(%)
same,AE leading to discontinuation: Hypertension,[2]; in vivo,0(0.0) n(%)
same,AE leading to discontinuation: Malaise,[2]; in vivo,1(0.7) n(%)
same,AE leading to discontinuation: Nausea,[2]; in vivo,0(0.0) n(%)
same,AE leading to discontinuation: Pyrexia,[2]; in vivo,0(0.0) n(%)
same,AE leading to discontinuation: Tenosynovitis,[2]; in vivo,1(0.7) n(%)
same,AE leading to discontinuation: Tenosynovitis stenosans,[2]; in vivo,1(0.7) n(%)
same,ALP > 3 × ULN,[2]; in vivo,0 (0.0) n (%)
same,ALT > 3 × ULN,[2]; in vivo,3 (2.2) n (%)
same,ALT > 5 × ULN,[2]; in vivo,1 (0.7) n (%)
same,ALT and AST > 3 × ULN,[2]; in vivo,2 (1.4) n (%)
same,ALT or AST > 3 × ULN with Tbili > 2 × ULN,[2]; in vivo,0 (0.0) n (%)
same,AST > 3 × ULN,[2]; in vivo,2 (1.4) n (%)
same,AST > 5 × ULN,[2]; in vivo,0 (0.0) n (%)
same,Any Markedly Abnormal LFT,[2]; in vivo,3 (2.2) n (%)
